Test results from ChEMBL document CHEMBL3507680, “University of Dundee, Gates Library screen for HepG2 cell viability”.

Test: Human HepG2 cell viability assay in 384 well format
Format: toxicity, cell-based
Parameters: dose 125 nL, time 70.5 hour; concentration not given beside the values
Conditions: HepG2 cells, read-out: Inhibition

SMILES | cytotoxicity at 70.5 h [%]
CCC1=NN2C(=N)/C(=C\c3cccn3-c3ccc(Cl)cc3)C(=O)N=C2S1 | 9.55
COCCc1noc(-c2ccc(-c3cc[nH]n3)nc2)n1 | -1.45
CC(C)c1nnc2n1CCN(C(=O)c1cn(-c3ccccc3)nn1)C2 | -6.83
Cc1ccc(C)c(C(NC(=O)C2CC2)c2cccnc2)c1 (stereo not given) | -1.23
O=C(c1cc(C2CCCC2)no1)N1CC(O)C1 | -3.97
COC(=O)N1C[C@H]2CC[C@@H]1CN(Cc1cscn1)C2 | 1.18
c1cnnc(N2CCCC2CNc2ncnc3ccsc23)c1 (stereo not given) | -1.29
Cn1cnc2c1CCN(Cc1csc(-c3ccc(F)cc3)n1)C2 | -3.43
COCCCSc1ccc(NC(=O)Nc2cn[nH]c2)cc1 | 18.2
CC(C)(C)c1noc(CCC(=O)NCC2CCS(=O)(=O)C2)n1 (stereo not given) | 1.1
O=C(CC1CCCC1)NCCn1ccc(-c2ccccn2)n1 | 4.96
CC(C)C(O)CNC(=O)Nc1ccc(F)c(Cl)c1 (stereo not given) | -0.302
Cc1cc(OC(F)F)c(C(=O)N2CC[C@H](O)C2)s1 | -6.12
N#Cc1cc(F)ccc1Cn1cncn1 | -9.13
Cc1nn(C)c(C)c1C1COCCN1c1ncnc2sccc12 (stereo not given) | -11.4
CC(C)CCN1CC2(CCN(C(=O)C3(C)CC3)CC2)OC1=O | -0.562
CC(C)(C)OC(=O)N1CSC[C@@H]1C(=O)NCc1ccsc1 | -1.79
COc1ccc(CC(=O)Nc2c(C)nc(N3CCOCC3)nc2C)cc1 | 1.49
CC(NC(=O)N1CCC1)c1ccc(S(C)(=O)=O)cc1 (stereo not given) | -5.1
C=C(C)CNC(C)c1ccc(S(C)(=O)=O)c(F)c1 (stereo not given) | -9.09
CCCC(C)CS(=O)(=O)NCc1cccnc1OC (stereo not given) | 1.49
CC(C)NC(=O)N1CCn2c(nnc2C2CCCN2)C1 (stereo not given) | -9.64
Cc1cnc(CCNC(=O)C2CCN(S(=O)(=O)c3ccc(F)cc3)C2)s1 (stereo not given) | 17.8

SMILES | cytotoxicity at 70.5 h [%]
Cc1[nH]c(=O)[nH]c(=O)c1CN1CCCC(CCc2ccc(F)c(F)c2)C1 (stereo not given) | -10.6
C[C@@H](O)CNC(=O)c1nc(CC(=O)Nc2ccccc2)no1 | -19.3
O=C(Nc1cccnc1)[C@H]1CN(Cc2nccs2)C[C@H]2OCC[C@@H]12 | 35.5
COCc1cccc(CNC(=O)CN2CCCC2c2noc(C)n2)c1 (stereo not given) | -13.1
CCc1cc(N(C)CCCO)n2nccc2n1 | -4.76
Cn1cc(C2COC3(CCN(C(=O)c4ccccn4)CC3)C2)cn1 (stereo not given) | -12.1
COc1ccccc1C1(C(=O)NCCN2CCOCC2)CCOCC1 | -17.1
Cc1ccc2nc3n(c2c1)[C@@H](CNC(=O)c1ccncc1)COC3 | 4.47
CNc1ncc(C(=O)N2CCC3(CC2)Nc2ccccc2NC3=O)cn1 | -0.695
O=C(c1ccncc1)N1CCC(O)(Cn2ccc3ccncc32)CC1 | -13.3
Cc1c(C(=O)NC2CCCOC2)nnn1-c1ccc(Cl)cc1F (stereo not given) | -0.806
CCC(N)C(=O)N1CCC(OCc2ccc(Cl)c(Cl)c2)CC1 (stereo not given) | 8.03
c1ccc(Cc2noc(CN3CCCCC3Cn3cccn3)n2)cc1 (stereo not given) | -9.87
CC(C)n1nnnc1-c1ccc(NC(=O)CC(F)(F)F)cc1F | -1.35
Cc1cnn(C2CCCN(C(=O)CCc3c(C)noc3C)C2)c1 (stereo not given) | -2.08
COc1cc(C(=O)NCC2CC2)nc2c(C)cc(F)cc12 | -4.75
CC(=O)NC1(C(=O)N2CCCN(c3cccnn3)CC2)CCCCC1 | -5.29
Cc1ccc(C2CC(=O)NCc3nc(N)sc32)cc1C (stereo not given) | -5.03
COc1ccc(-c2nc3c([nH]2)CCNC3C(=O)O)c2ccccc12 (stereo not given) | -7.46
Cc1ccc(-n2c(SCC(=O)O)nnc2-c2ccccc2)cc1 | -7.44
CCOC(=O)c1ccc(CNC(=O)c2ccc(C)nc2)o1 | 11
c1cc(-c2nnn3c2COC(CNCC2CCOCC2)C3)ccn1 (stereo not given) | 32.3
CC(=O)N(Cc1ncc(C)o1)C1CCN(CCc2cccs2)C1 (stereo not given) | 17.8

SMILES | cytotoxicity at 70.5 h [%]
Cc1nc(CNC(=O)Nc2ccc(N(C)C)nc2)sc1C | -2.95
Cc1ccc(CN2CC(C(=O)N3CCCC3)C3(CCOCC3)C2)s1 (stereo not given) | -9.91
CN(C)c1ncnc2c1CCN(S(=O)(=O)c1ccccc1C(F)(F)F)C2 | 1.88
Cc1cc(C)c(CNc2cnn(CC(O)CN(C)C)c2)c(C)c1 (stereo not given) | -11.8
O=C(Cc1ccc2c(c1)CCCC2)NCCc1ccccn1 | -5.18
O=C(CN1CCCS1(=O)=O)Nc1ccc(OC2CCCC2)cc1 | -0.244
CC(C)CC1(C(=O)NCc2nncn2C2CC2)CCC1 | 1.12
O=C1NC(=O)c2c3c(nc(O)c21)CCCC3 | 0.775
CC1CN(S(=O)(=O)c2cc(S(C)(=O)=O)ccc2Br)c2cccnc2O1 (stereo not given) | 1.23
COc1cc(C)sc1C(=O)N1CC(c2cccnc2)C1 | -3.92
CN(C)S(=O)(=O)N1CCC(c2ccncn2)CC1 | -11.3
CCOc1c(F)cccc1C(=O)N(CC)C(C)c1cccnc1 (stereo not given) | -6.68
Cc1cccc(COc2ccc(C(C)N)cc2)c1 (stereo not given) | -4.64
Cc1cnn(CCNCc2nc(-c3ccsc3)oc2C)c1 | 7.72
CCCN1CCC(CC(=O)N(C)CC(=O)c2ccc(O)cc2)CC1 | -12.2
O=C(NC1CCS(=O)(=O)c2ccccc21)c1cccs1 (stereo not given) | -7.77
c1ccc2nc(NCC3(N4CCOCC4)CCSC3)cnc2c1 (stereo not given) | 28.5
COc1ccc(C)cc1-c1[nH]c2ccccc2c1C(=O)O | -10.2
CC(C)c1nc(CN(C)C(=O)c2ccccc2C2CCNC2)cs1 (stereo not given) | -8.26
CCC(CNC(=O)COC)Oc1cccc(F)c1 (stereo not given) | 14.9
CN(C)C(=O)c1nn(C)c2c1CN(Cc1cccs1)C2 | -9.29
CC(C)(C)C(=O)N1CCC(n2cc(C3(O)CCCC3)nn2)CC1 | -9.39
CCc1noc(CCCC(=O)N2CCCC(c3ccn[nH]3)C2)n1 (stereo not given) | -5.32

SMILES | cytotoxicity at 70.5 h [%]
Cc1ccnn1CCC(=O)N1CCCC[C@]2(C)NC(=O)CCC[C@H]12 | -7.45
Cc1ncc(-c2ccnc(NCCc3ccc(F)cc3)n2)c(=O)[nH]1 | -12.9
O=C(O)c1ccccc1CN1CCC(c2ccnc3ccnn23)CC1 | -4.52
CC(=O)NCc1ccc(C(=O)N2CCCC2c2cnn(C)c2)s1 (stereo not given) | -0.6
COCC(=O)N1CCc2nc(C)nc(NC(C)C)c2CC1 | -6.06
COC(=O)c1ccc(N2CCN(C(=O)c3cnc(C)cn3)C(C)C2)cc1 (stereo not given) | -11
COc1ccc2c(c1)CN(Cc1nc3c(cnn3C)c(=O)[nH]1)CC2 | 45.5
Cc1c(S(=O)(=O)NCC(C)C)cnn1C | -14.3
CN(Cc1ncnn1C)C(=O)CCn1ccc2ccccc21 | -7.59
O=C(NCCCNC(=O)c1cccc(O)c1)Nc1ccc(Cl)cc1 | -0.328
NC(=O)C1CCN(C(=O)c2cccn2Cc2cccs2)C1 (stereo not given) | -0.693
Cn1nc2c(cc1=O)CN(c1ncnc3ccsc13)CC2 | 3.58
Cc1nc(C)n(CC2CCCN(CCC(=O)Nc3cc(C)on3)C2)n1 (stereo not given) | -9.8
Cc1nc(CSCCC(=O)NCc2ccc(N(C)C)cc2)cs1 | -3.76
Cn1cc(CN2CCn3c(CNC(=O)c4cccn4C)cnc3C2)cn1 | 4.31
CC1N(CC2CC2)C(=O)COC12CCN(C(=O)c1cccs1)CC2 (stereo not given) | -5.2
CN(C)C(=O)N1CC[C@H]2[C@H]1CCN2c1nncs1 | -6.13
CC(C)N1CCC(c2n[nH]cc2S(C)(=O)=O)CC1 | -10.2
Cc1noc(Cl)c1CCC(=O)N1CCN(CC(C)(C)O)CC1 | 7.84
CCOC(=O)CCNC(=O)c1cc(Cl)cc2cccnc12 | -4.4
CC(=O)NCCNC(=O)CCn1c(C)cc2ccccc21 | -3.8
Cc1ccc(CN2CCC(Cc3nnc(CO)n3C)CC2)cc1C | 3.69
Cc1nn(CC(C)C)c(C)c1CC(=O)N1CCCC(CNS(C)(=O)=O)C1 (stereo not given) | -13.2

SMILES | cytotoxicity at 70.5 h [%]
Cc1cc(CC(=O)NCC(O)c2ccc(OC(F)F)cc2)n[nH]1 (stereo not given) | -4.53
Cn1cc(CCCNS(=O)(=O)N2CCCC2c2ccco2)cn1 (stereo not given) | -2.37
NC1CCCN(Cc2cccc(C(F)(F)F)c2)C1=O (stereo not given) | -7.1
CCNC(=O)N1CCC(NC(=O)NCCc2cc3ccccc3o2)C1 (stereo not given) | 11.5
Cc1cc(C(=O)N2C[C@@H](CN3CCCCC3)[C@@H](CO)C2)ccc1O | -5.69
CCCN1CCC(c2nc3ccc(C)cn3n2)CC1 | -6.41
Cc1nc(C2CCNC2)nc2c1CCC(=O)N2CC(C)C (stereo not given) | -3.62
CCC(C)N1Cc2c(C(=O)N3CCOCC3)nn(C)c2C1 (stereo not given) | -6.15
CC(C)NC(=O)C1CN(Cc2ccsc2)Cc2ccnn2C1 (stereo not given) | 1.63
COCCN(C)C[C@@H]1CCC[C@@H]2CN(c3cc(OC)ncn3)C[C@@H]21 | -4.84
CCc1nc(C2CCCN2Cc2nccn2Cc2ccccc2)no1 (stereo not given) | -10.3
CCn1c(CN2CCCC2)nnc1C1CCN(Cc2cccnc2)CC1 | 19.5
COc1ccc(CN2CCN(C(C)c3nc(C4CC4)no3)CC2)cc1 (stereo not given) | -6.65
COc1ccc(OCC(=O)NS(=O)(=O)c2ccc(Br)s2)cc1 | 18.9
Cc1ccsc1C(=O)N1CCC(c2nccn2Cc2ccncc2)CC1 | -9.49
CC(C(=O)Nc1ccc(N2CCCCC2)nc1)n1ccnc1 (stereo not given) | 25.5
CC(C)(C)CCNC(=O)c1ccc(Cl)c(NS(C)(=O)=O)c1 | 8.13
N#Cc1ccc(N2CCCC3(CCN(c4cncnc4)C3=O)C2)nc1 (stereo not given) | 7.49
Cc1noc(C)c1CN1CCOCC12CCN(c1nccs1)CC2 | -8.54
COc1ccc(-c2nc(C#N)c(N(C)C)o2)cc1S(=O)(=O)N(C)C | -11.8
O=C(NCC(F)(F)F)C1=NOC2(CCCNC2)C1 (stereo not given) | 0.364
O=C(O)CNC(=O)Cc1csc(-c2cccc(Cl)c2)n1 | 21.1
Fc1cnc(N2CCO[C@H]3CN(CC4CCC4)C[C@H]32)nc1 | -0.999
